The target in series [1] is T1, CYP3A4 (Homo sapiens, UniProt P08684).
T1 construct: purchased Invitrogen Corporation Vivid CYP450 Screening Kit (catalogue number not given)
As to the kind of experiment: Cytochrome P450 (CYP450) inhibition assay, Vivid fluorescence, CYP3A4. It is filed as in vitro ADME. The settings on record: P450 Baculosomes (CYP3A4), probe Vivid substrate (fluorogenic, not named).

The test system of series [2] is sodium channel. The format is cell-based, human or rat. The settings on record: known cell line that expresses a sodium channel.
For series [3], the target named is CYP2C19 (Homo sapiens, UniProt P33261). The series can be described thus: in vitro. An excerpt:
(§1) CYP450 (CYP) is a designation for a superfamily of enzymes. Each family consists of one or more subfamilies and each subfamily contains one or more specific CYP isoforms. The Cytochrome P450 (CYP450) Inhibition Assay is a fluorescence-based assay using a cytochrome CYP isozyme for screening of compounds of the invention to determine the level of CYP inhibition by a specific compound. The assay is based on the CYP inhibition kit described by Vivid CYP450 Screening Kit Protocol, 2005, Invitrogen Corporation (Invitrogen Corporation, 1600 Faraday Avenue, Carlsbad, Calif. 92008, USA).
(§2) This assay is designed to assess compounds by quantifying the inhibition of the predominant human CYP isozymes involved in hepatic drug metabolism. […] The standard method for evaluating specific CYP isozyme inhibition is to determine the conversion rate of a probe substrate into its metabolite, in the presence and absence of the potential inhibitor. Quantification of the metabolite is achieved by HPLC or by using a probe substrate (Table 3) that is metabolized into a fluorescent product (fluorescent assay).
(§3) This assay can be used for single concentration screening or for IC50 determination. In a single concentration screening assay, the final assay concentration of the test compound is 10 μM. In an IC50 determination assay, IC50 may be determined using a 3, 6, or 12 point curve in triplicate with a chosen starting concentration diluted serially.
(§4) In the Preparation Stage, the test compounds, controls (acetonitrile (ACN) or Dimethyl sulfoxide (DMSO) and No Baculosomes), and known inhibitors (Table 4) were diluted to 10% ACN or DMSO in water at appropriate concentrations.

Series [4] deals with CYP2D6 (Homo sapiens, UniProt P10635). The series can be described thus: in vitro.
Chain of CYP2D6 (P10635 whole entry): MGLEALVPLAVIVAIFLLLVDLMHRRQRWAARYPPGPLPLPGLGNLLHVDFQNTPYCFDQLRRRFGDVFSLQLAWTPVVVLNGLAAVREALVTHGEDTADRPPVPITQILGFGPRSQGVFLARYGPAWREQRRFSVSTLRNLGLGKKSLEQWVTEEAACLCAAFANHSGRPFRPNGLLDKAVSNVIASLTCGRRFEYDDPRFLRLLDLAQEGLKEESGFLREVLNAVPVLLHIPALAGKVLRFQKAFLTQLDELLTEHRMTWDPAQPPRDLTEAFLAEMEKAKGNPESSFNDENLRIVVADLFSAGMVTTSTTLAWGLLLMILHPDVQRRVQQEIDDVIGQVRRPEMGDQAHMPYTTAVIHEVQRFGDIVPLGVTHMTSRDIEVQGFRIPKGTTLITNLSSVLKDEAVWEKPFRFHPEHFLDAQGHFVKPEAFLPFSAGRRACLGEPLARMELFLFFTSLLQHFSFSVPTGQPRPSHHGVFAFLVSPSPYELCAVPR
Text: as §1, §2, §3, §4

Series [5] addresses CYP2C9 (Homo sapiens, UniProt P11712). The series can be described thus: in vitro.
Text: as §1, §2, §3, §4

Series [6] concerns the target PC12 (Nav1.2) (Rattus norvegicus, UniProt P04775).
Series [7] relates to CHO-K1 (NaV1.4). It is filed as cell-based, Chinese Hamster.
Series [8] has as its system SH-SY5Y (NaV1.9 and NaV1.7). The format is cell-based, Human.
For series [9], the system named is L6 (Nav1.4 and 1.5). It is filed as cell-based, rat.
For series [10], the target named is SK-N-BE2C (NaV1.8) (Homo sapiens, UniProt Q9Y5Y9). It is filed as cell-based.

T1 sequence (P08684 whole entry): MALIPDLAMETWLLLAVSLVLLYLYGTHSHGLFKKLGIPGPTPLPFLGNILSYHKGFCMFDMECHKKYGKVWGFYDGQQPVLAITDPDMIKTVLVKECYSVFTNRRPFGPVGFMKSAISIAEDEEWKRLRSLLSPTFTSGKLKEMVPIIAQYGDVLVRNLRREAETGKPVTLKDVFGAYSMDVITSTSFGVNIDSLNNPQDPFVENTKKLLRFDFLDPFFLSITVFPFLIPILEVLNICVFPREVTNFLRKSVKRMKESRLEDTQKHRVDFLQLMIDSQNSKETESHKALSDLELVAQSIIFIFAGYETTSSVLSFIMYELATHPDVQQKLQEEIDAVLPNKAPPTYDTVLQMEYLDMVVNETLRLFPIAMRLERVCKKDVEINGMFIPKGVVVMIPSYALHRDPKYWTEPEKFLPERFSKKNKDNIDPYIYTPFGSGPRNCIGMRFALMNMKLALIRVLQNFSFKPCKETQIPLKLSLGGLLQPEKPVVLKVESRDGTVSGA
Chain of CYP2C9 (P11712 whole entry): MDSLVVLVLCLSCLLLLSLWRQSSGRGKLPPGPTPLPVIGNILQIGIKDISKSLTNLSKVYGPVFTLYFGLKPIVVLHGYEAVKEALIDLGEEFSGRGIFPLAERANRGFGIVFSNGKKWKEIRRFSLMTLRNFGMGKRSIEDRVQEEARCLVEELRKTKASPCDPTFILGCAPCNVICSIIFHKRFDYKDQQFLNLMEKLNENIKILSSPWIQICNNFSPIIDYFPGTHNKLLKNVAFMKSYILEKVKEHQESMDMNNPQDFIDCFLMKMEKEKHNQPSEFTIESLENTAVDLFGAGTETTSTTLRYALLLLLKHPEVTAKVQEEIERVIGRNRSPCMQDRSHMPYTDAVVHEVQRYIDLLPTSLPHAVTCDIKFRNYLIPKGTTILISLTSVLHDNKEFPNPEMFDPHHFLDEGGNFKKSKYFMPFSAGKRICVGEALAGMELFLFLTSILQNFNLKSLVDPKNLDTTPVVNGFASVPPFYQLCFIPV
Chain of PC12 (Nav1.2) (P04775 whole entry, looked up): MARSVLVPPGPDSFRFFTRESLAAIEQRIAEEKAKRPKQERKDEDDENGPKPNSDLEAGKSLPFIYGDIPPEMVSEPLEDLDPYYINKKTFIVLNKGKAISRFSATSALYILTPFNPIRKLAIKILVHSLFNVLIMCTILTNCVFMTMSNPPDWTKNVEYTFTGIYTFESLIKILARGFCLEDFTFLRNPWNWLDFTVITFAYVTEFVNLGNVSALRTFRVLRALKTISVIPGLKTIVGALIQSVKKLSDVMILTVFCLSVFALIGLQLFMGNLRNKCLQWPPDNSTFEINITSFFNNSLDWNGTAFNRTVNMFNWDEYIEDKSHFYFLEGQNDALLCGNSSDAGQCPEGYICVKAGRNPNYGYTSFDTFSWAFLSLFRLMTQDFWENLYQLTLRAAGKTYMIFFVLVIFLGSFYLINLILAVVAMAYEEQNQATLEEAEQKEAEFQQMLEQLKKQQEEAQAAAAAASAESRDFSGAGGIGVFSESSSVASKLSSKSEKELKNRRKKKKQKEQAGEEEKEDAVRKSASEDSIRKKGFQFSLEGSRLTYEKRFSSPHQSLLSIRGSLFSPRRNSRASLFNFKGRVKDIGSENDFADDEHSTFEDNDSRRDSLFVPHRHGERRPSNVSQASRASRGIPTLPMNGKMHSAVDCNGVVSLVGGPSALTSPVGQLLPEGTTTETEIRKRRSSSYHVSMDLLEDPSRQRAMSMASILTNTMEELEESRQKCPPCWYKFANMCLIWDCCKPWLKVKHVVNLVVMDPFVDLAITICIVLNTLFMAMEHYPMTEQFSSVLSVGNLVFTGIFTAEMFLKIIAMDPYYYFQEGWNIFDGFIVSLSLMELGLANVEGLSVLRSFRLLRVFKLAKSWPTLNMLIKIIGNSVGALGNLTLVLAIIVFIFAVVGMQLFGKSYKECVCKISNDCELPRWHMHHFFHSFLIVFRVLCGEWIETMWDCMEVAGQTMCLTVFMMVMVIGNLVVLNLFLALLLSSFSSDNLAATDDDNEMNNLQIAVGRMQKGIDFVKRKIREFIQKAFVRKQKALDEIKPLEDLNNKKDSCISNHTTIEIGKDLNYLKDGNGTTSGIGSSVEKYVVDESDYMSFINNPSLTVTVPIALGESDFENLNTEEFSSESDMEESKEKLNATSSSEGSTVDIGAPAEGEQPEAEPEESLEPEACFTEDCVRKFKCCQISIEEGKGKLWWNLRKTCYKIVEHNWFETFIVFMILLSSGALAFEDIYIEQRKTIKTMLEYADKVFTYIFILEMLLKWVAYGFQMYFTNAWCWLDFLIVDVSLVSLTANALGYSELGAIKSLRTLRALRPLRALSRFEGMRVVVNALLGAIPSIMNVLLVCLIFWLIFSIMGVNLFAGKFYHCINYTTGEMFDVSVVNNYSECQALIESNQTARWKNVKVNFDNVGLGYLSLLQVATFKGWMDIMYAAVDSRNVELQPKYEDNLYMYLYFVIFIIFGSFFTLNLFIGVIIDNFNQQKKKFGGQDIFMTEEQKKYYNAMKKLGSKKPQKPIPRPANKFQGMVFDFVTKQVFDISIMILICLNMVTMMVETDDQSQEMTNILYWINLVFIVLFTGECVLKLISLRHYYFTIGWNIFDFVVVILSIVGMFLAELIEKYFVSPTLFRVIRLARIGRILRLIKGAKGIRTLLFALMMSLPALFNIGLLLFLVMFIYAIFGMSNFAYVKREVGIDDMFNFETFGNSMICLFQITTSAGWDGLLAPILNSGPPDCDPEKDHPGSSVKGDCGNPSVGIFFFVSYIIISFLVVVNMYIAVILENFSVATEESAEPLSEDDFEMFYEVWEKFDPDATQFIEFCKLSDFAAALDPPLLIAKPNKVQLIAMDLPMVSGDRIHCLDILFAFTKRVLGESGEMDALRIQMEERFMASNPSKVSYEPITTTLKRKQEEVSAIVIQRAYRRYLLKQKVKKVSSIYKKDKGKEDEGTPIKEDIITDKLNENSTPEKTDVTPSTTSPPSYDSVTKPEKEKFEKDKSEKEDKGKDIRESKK
Chain of CYP2C19 (P33261 whole entry, canonical isoform): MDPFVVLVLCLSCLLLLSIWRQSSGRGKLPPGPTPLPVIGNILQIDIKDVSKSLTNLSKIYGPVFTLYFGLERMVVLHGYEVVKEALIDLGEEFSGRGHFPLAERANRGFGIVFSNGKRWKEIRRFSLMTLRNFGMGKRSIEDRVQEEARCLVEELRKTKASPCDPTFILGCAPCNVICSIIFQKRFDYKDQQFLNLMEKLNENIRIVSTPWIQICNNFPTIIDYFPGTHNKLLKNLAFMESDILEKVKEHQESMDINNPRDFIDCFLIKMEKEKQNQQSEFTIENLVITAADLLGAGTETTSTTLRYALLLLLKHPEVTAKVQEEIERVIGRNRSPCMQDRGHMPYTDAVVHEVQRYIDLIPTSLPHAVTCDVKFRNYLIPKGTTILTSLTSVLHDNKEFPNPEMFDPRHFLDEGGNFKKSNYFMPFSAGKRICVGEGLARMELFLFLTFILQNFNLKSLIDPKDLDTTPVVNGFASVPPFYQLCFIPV

The molecule `COc1ccc2c(n1)C1(CO2)C(=O)N(C[C@H]2CCCO2)c2cccc(Br)c21` (stereo partly drawn) [Example 1, 4′-bromo-5-methoxy-1′-[(2R)-tetrahydrofuran-2-ylmethyl]spiro[furo[3,2-b]pyridine-3,3′-indol]-2′(1′H)-one] had a melting point of 110 to 112 °C. Also, in [1], the inhibition at 10 µM is below 50%. The molecule further yielded an IC50 in series [2] of 100 to 1000 nM.
Turning to `COc1ccc2c(n1)C1(CO2)C(=O)N(C[C@H]2CCCO2)c2ccccc21` (stereo partly drawn) [Example 2, 5-methoxy-1′-[(2R)-tetrahydrofuran-2-ylmethyl]spiro[furo[3,2-b]pyridine-3,3′-indol]-2′(1′H)-one], the melting point is 52 to 56 °C.
Molecule `COc1ccc2c(n1)C1(CO2)C(=O)N(Cc2ccc3c(c2)OCCO3)c2ccccc21` (stereo not drawn) [Example 3, 1′-(2,3-dihydro-1,4-benzodioxin-6-ylmethyl)-5-methoxyspiro[furo[3,2-b]pyridine-3,3′-indol]-2′(1′H)-one] had a melting point of 144 to 146 °C. Also, the IC50 in series [2] lay in the range of 1 to 100 nM.
`O=C1N(C[C@H]2CCCO2)c2ccccc2C12COc1c[nH]c(=O)cc12` (stereo partly drawn) [Example 4, 1′-[(2R)-tetrahydrofuran-2-ylmethyl]spiro[furo[2,3-c]pyridine-3,3′-indole]-2′,5(1′H,6H)-dione] registered a melting point above 250 °C. The inhibition at 10 µM in [1] was below 50%. This molecule gave an IC50 in series [2] of 1000 to 10000 nM.
On the same counts, the results for `O=C1Nc2ncccc2C12COc1cc3c(cc12)OCCO3` (stereo not drawn) [Example 6, 2,3-dihydrospiro[furo[2,3-g][1,4]benzodioxine-8,3′-pyrrolo[2,3-b]pyridin]-2′(1′H)-one] are above 250 °C, below 50% and 100 to 1000 nM.
`O=C1N(Cc2ccccn2)c2ncccc2C12COc1cc3c(cc12)OCCO3` (stereo not drawn) [Example 7, 1′-(pyridin-2-ylmethyl)-2,3-dihydrospiro[furo[2,3-g][1,4]benzodioxine-8,3′-pyrrolo[2,3-b]pyridin]-2′(1′H)-one] returned an inhibition at 10 µM in series [1] below 50%. For the same molecule, the IC50 in [2] was in the range of 1 to 100 nM.
On the same counts, the results for `O=C1N(Cc2ncccc2C(F)(F)F)c2ncccc2C12COc1cc3c(cc12)OCCO3` (stereo not drawn) [Example 8, 1′-{[3-(trifluoromethyl)pyridin-2-yl]methyl}-2,3-dihydrospiro[furo[2,3-g][1,4]benzodioxine-8,3′-pyrrolo[2,3-b]pyridin]-2′(1′H)-one] are below 50% and 100 to 1000 nM.
Regarding `O=C1Nc2cccnc2C12COc1cc3c(cc12)OCCO3` (stereo not drawn) [Example 10, 2,3-dihydrospiro[furo[2,3-g][1,4]benzodioxine-8,3′-pyrrolo[3,2-b]pyridin]-2′(1′H)-one], the melting point is above 250 °C. The same molecule yielded an inhibition at 10 µM in [1] below 50%. Further, the IC50 in [2] lay within 1000 to 10000 nM.
On the same counts, the results for `O=C1N(Cc2ccccn2)c2cccnc2C12COc1cc3c(cc12)OCCO3` (stereo not drawn) [Example 11, 1′-(pyridin-2-ylmethyl)-2,3-dihydrospiro[furo[2,3-g][1,4]benzodioxine-8,3′-pyrrolo[3,2-b]pyridin]-2′(1′H)-one] are 146 to 147 °C, below 50% and 100 to 1000 nM.
`O=C1N(Cc2ncccc2C(F)(F)F)c2cccnc2C12COc1cc3c(cc12)OCCO3` (stereo not drawn) [Example 12, 1′-{[3-(trifluoromethyl)pyridin-2-yl]methyl}-2,3-dihydrospiro[furo[2,3-g][1,4]benzodioxine-8,3′-pyrrolo[3,2-b]pyridin]-2′(1′H)-one] came in with a melting point above 250 °C. Further, the inhibition at 10 µM in series [1] is below 50%. In series [2], this molecule showed an IC50 of 100 to 1000 nM.
On the same counts, the results for `COc1ccc2c(n1)C1(CO2)C(=O)N(Cc2ncccc2C(F)(F)F)c2ccccc21` (stereo not drawn) [Example 13, 5-methoxy-1′-{[3-(trifluoromethyl)pyridin-2-yl]methyl}spiro[furo[3,2-b]pyridine-3,3′-indol]-2′(1′H)-one] are 195 to 198 °C, below 50% and 100 to 1000 nM.
Turning to `CC(=O)N1CCN(c2ccc(OCC3COC(Cn4ccnc4)(c4ccc(Cl)cc4Cl)O3)cc2)CC1` (stereo not drawn) [Ketoconazole], testing at 7.62 µM in series [3] gave an inhibition of 65%.
Molecule `C=C[C@H]1C[N@@]2CC[C@H]1C[C@@H]2[C@@H](O)c1ccnc2ccc(OC)cc12` [Quinidine] displayed an inhibition at 0.0137 µM in [4] of 55%.
In turn, `Nc1ccc(S(=O)(=O)Nc2ccnn2-c2ccccc2)cc1` [Sulfaphenazole] returned an inhibition at 0.42 µM in series [5] of 50%.
Turning to `NC1=N[C@H](O)[C@H]2[C@H]3O[C@]4(O)O[C@@H]([C@@H](O)[C@@]2(N1)[C@@H]4O)[C@]3(O)CO` [TTX, tetrodotoxin], the “block of the increase in [14C] guanidine influx” value in series [6] is recorded as “guanidine influx was completely”; in [7], “completely blocked using TTX”; in series [8], “background was partially blocked”; in [9] it was “partially blocked by TTX at 100”; in [10] it was “TTX partially blocked influx”.

These data come from patent publication US20110269788A1, “SPIRO-OXINDOLE-DERIVATIVES AS SODIUM CHANNEL BLOCKERS” (Xenon Pharmaceuticals Inc., priority 2008, published 2011).
